Experimental data: patent EP1862466A2, “Arrays with cleavable linkers” (THE SCRIPPS RESEARCH INSTITUTE, priority 2004, dated 2006)

Key:
[1] = tested on: chST6GalNAc-I; experiment: chST6GalNAc-I activity on small acceptor molecules (α-D-galacto derivatives); format: biochemical, chicken; conditions: substance used as acceptor
Description: The inventors have previously reported the cloning, expression, and characterization of chicken ST6GalNAc-I and its use in preparative synthesis of the O-linked sialoside antigens, STn-, α(2-6)SiaT-, α(2-3)SiaT- and Di-SiaT-antigen. Blixt, O.;Allin, K.;Pereira, L.;Datta, A. and Paulson, J. C., J. Am. Chem. Soc. 2002, 124, 5739-5746. Briefly, the recombinant enzyme was expressed in insect cells and purified by CDP-sepharose affinity chromatography to generate approximately 10 U/L of cell culture. The enzymatic activity was evaluated on a set of small acceptor molecules. […] Table 6. chST6GalNAc-I Activity of α-D-Galacto Derivatives

[2] = tested on: MBr1 anti-Globo H monoclonal antibody (IgM); experiment: Microarray analysis of Globo H derivatives with MBr1 antibody; format: binding, mouse; conditions: sugars spotted on NHS-coated glass slide; FITC secondary antibody
Method: NHS-coated glass slides were spotted with methanolic solutions of sugars 201-204a with concentrations of 5, 10, 20, 30, 40, 50, 60, 80 and 100 µM from bottom to top with ten duplicates horizontally placed in each grid. This attachment procedure is illustrated in FIG. 12. The slide was washed with PBS buffer for one minute.
This solution was added below the printed grid of sugars and then spread through the application of a coverslip. Incubation in a glass humidifying chamber was performed with shaking for 1 hour. Following this, the slide was washed 5x with 0.05 % tween20 / PBS buffer, 5x with PBS buffer and 5x with water. Next, 200 µL of a 70 µg/mL solution of FITC-tagged goat anti-mouse antibody (Cal Biochem) was formed and added to the slide as before. […] A fluorescence scan was then performed on the slide. The resulting image was analyzed using the program Imagene to locate and quantify the fluorescence of all the spots within the grid.
Disulfide linker immobilization (of type 217): The BOC protected derivative of disulfide linker 215 (3.9 mg, 13.5 µmol) was dissolved in 1 mL of dichloromethane and 1 mL trifluoroacetic acid was added. […] These solutions were spotted on a solid surface and analyzed along side 201-204a. […]
Images such as the one shown in FIG. 13 could then be processed using the program Imagene to encircle and quantify the fluorescence of each spot. […]

[3] = tested on: 2G12 antibody; experiment: Carbohydrate microarray analysis, microtiter-based, Scatchard plot (Kd); format: binding, human; conditions: microtiter plate array
Method: Carbohydrate microarray analysis. Ninety-six well NHS-coated microtiter plates (NoAb Biodiscoveries) were treated with 200 µL of a 1 mM methanolic solution of the amino-functionalized disulfide and alkyne containing linker (scheme V) containing 5 % diisopropylethylamine (DIEA) and incubated overnight at 4°C. The microtiter plate was then washed with 2 x 200 µL methanol and 2 x 200 µL water. Next, 200 µL solutions of azido-functionalized oligomannose derivatives 21-25 at varying concentrations from 0 to 500 µM in 5 % DIEA / methanol were introduced. A sprinkle of copper (I) iodide was added and the contents were allowed to react overnight at 4°C. The next day, the contents were removed and the plates were washed with 2 x 200 µL methanol and 2 x 200 µL water. The plates were then blocked with 0.1 % Tween20 solution in HEPES buffer pH 7.5 at 4 °C for 1 hour and then washed with 3 x 200 µL HEPES buffer. Next, 200 µL of a 1 µg/mL solution of 2G12 antibody in 0.1 % Tween20 / PBS buffer was added to the wells for a 1 hour incubation at 4 °C and then washed with 2 x 200 µL PBS buffer. At this point, 200 µL of FITC-tagged goat anti-human IgG antibody (10 µg/mL in PBS, Cal Biochem) was added for 1 hour at 4 °C, and the wells were then washed with 2 x 200 µL PBS buffer. Detection of the FITC-tagged secondary antibody was performed in 200 µL water using a fluorescence plate reader. The resulting data yielded the oligomannose-2G12 binding isotherms and Scatchard plot analysis was implemented in the determination of dissociation constants. Adams et al. (2004) Chem. Biol. 11: 875-81.
Overall, many of the oligomannose derivatives can compete for binding of Man9GlcNAc2, and, therefore, may serve as building blocks for potential immunogens to elicit 2G12-like antibodies. Carbohydrate Microarray Analysis. Previous studies by the inventors using covalent microtiter plates with a panel of carbohydrate epitopes for interaction with 2G12 involved converting the amine-containing oligomannoses 4, 5, 7, 8 and 9 to the corresponding azide derivatives 21, 22, 23, 24 and 25. These derivatives were then covalently attached to a microplate-immobilized cleavable linker via the Cu (I)-catalyzed 1,3-dipolar cycloaddition reaction (FIG. 11B). Kd values for the interaction of 2G12 with oligomannoses 4, 5, 7, 8, 9 (Table 9) were determined using a microtiter-based assay with detection via a fluorescent secondary antibody (see Bryan et al.(2004) J. Am. Chem. Soc. 126, 8640-41). Table 9: The Kd values of oligomannoses 1 and 4, 5, 7, 8, 9 binding to 2G12, as determined by carbohydrate microarray analysis.

[4] = tested on: interaction between 2G12 and gp120; experiment: Solution phase ELISA: oligomannose inhibition of 2G12 binding to gp120; design: species or system HIV-1; conditions: oligomannose at 0.5 mM
Method: Enzyme-linked immunosorbent assay. Microtiter plate wells (flat bottom, Costar type 3690; Corning Inc.) were coated with 50 ng/well gp120JR-CSF overnight at 4°C. All subsequent steps were performed at room temperature. The wells were then washed four times with PBS/0.05% (vol/vol) Tween20 (Sigma) using a microplate washer (SkanWash 400, Molecular Devices) prior to blocking for 1 hr with 3% (mass/vol) BSA. IgG 2G12, diluted to 0.5 µg/mL (25 ng/well) with 1% (mass/vol) BSA/0.02% (vol/vol) Tween20/PBS (PBS-BT), was then added for 2 hrs to the antigen-coated wells in the presence of serially-diluted oligomannoses starting at 2mM. Unbound antibody was removed by washing four times, as described above. Bound 2G12 was detected with an alkaline phosphatase-conjugated goat anti-human IgG F(ab')2 antibody (Pierce) diluted 1:1000 in PBS-BT. After 1hr, the wells were washed four times and bound antibody was visualized with p-nitrophenol phosphate substrate (Sigma) and monitored at 405 nm.
Binding. Man9GlcNAc2 1 and deprotected oligomannoses 2-6 and 7-9 (see FIG. 17) were evaluated for their ability to inhibit the interaction between 2G12 and gp120 in a solution phase enzyme-linked immunosorbent assay (ELISA). […]

CC(=O)N[C@H]1C(O)O[C@H](CO)[C@H](O)[C@@H]1O (stereo partly drawn) [D-GalNAc]
chST6GalNAc-I Activity, cpm [1]: 0 cpm | chST6GalNAc-I Activity, nmol/mg x min^-1 [1]: 0.00 nmol/mg x min^-1

CC(=O)N[C@H]1[C@H](O[C@H]2[C@@H](O)[C@@H](CO)O[C@H](O[C@@H]3[C@H](O)[C@@H](O)[C@H](O[C@H]4[C@H](O)[C@@H](O)[C@H](OCCCCCN)O[C@@H]4CO)O[C@@H]3CO)[C@@H]2O)O[C@H](CO)[C@H](O)[C@@H]1O[C@@H]1O[C@H](CO)[C@H](O)[C@H](O)[C@H]1O[C@@H]1O[C@@H](C)[C@@H](O)[C@@H](O)[C@@H]1O [Compound 204a]
binding of MBr1 antibody to immobilized sugar (in words) [2]: greatest affinity

C[C@@H]1O[C@@H](O[C@H]2[C@H](OCCCCCN)O[C@H](CO)[C@H](O)[C@@H]2O)[C@@H](O)[C@H](O)[C@@H]1O [Compound 201a]
binding of MBr1 antibody to immobilized sugar (in words) [2]: no recruitment of antibody to the surface

NCCCCCO[C@H]1O[C@H](CO[C@H]2O[C@H](CO)[C@@H](O)[C@H](O)[C@@H]2O[C@H]2O[C@H](CO)[C@@H](O)[C@H](O)[C@@H]2O)[C@@H](O)[C@H](O[C@H]2O[C@H](CO)[C@@H](O)[C@H](O)[C@@H]2O[C@H]2O[C@H](CO)[C@@H](O)[C@H](O)[C@@H]2O)[C@@H]1O [Oligomannose 5]
affinity for 2G12 antibodies (in words) [3]: greatest affinity | inhibition (%) of 2G12 binding to gp120 [4]: 37.7%
